Measured values as given in patent US20240034785A1, “RXR-ALPHA BINDERS AND RXR-ALPHA/PLK1 MODULATORS” (NUCMITO PHARMACEUTICALS CO. LTD., priority 2020, published 2024).

How the values were obtained:
[1] = tested on: QSG-7701 cells; test: Western blot analysis of QSG-7701 normal liver cells; type: cell-based, human; details: 12 hr (FIG. 61)
[2] = tested on: RXRα shift; test: Western blot of RXRα mobility shift (phosphorylation) in mitotic HeLa cells treated with inhibitors; type: cell-based, human; details: for RXRα shift (mobility shift on SDS-PAGE, WB): mitotic HeLa cells released from TT block, inhibitors for 15 min (FIG. 16)
Description: (§1) Cells were synchronized at GUS boundary by a double thymidine block. Briefly, cells cultured in a medium containing 2 mM thymidine for 16 hr were released into a normal medium for 8 hr, subjected to a second thymidine block for 16 hr, and then released into a fresh medium again. Alternatively, cells were synchronized at prometaphase by a thymidine-nocodazole arrest (an 18-hr thymidine arrest and a 5-hr release, followed by a 5-hr 100 ng/mL nocodazole arrest).

[3] = tested on: cancer cells; test: Mitotic progression of cancer cells (FACS analysis); type: cell-based
Description: Cells were harvested by trypsin digestion, washed with PBS, and fixed with ice-cold 70% ethanol overnight at 4° C. The fixed cells were then washed twice in PBS and treated for 10 min at room temperature with 0.5 μg/mL 4-6-diamidino-2-phenylindole (DAPI) in PBS and analyzed on a FACSCAN™ flow cytometer. Flow cytometry data were analyzed using CYTEXPERT.

[4] = target: T1, p-RXRα and PLK1 at the centrosome (Homo sapiens, UniProt P19793); test: In situ proximity ligation assay (PLA) in HepG2 cells; type: cell-based; details: RO-3306 10 μM for 30 min or compound A1 10 μM for 2 hr (FIG. 56)
T1 construct: endogenous in cells; host or cells: HepG2
T1 sequence (P19793 1-462): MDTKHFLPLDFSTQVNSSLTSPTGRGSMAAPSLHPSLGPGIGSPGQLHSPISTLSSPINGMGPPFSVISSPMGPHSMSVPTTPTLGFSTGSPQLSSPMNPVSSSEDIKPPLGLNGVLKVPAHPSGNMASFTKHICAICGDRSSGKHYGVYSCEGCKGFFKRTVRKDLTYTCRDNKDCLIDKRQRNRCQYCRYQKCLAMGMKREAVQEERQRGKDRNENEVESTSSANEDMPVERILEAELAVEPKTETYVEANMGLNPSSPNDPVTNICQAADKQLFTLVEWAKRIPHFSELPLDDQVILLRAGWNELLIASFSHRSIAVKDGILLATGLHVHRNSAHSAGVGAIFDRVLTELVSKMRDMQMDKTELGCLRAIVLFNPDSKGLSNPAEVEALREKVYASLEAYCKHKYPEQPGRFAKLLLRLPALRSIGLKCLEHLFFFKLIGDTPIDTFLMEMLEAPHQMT
Description: An in situ proximity ligation assay (PLA) was performed in HeLa cells and HepG2 by using a DOULINK™ assay kit. Briefly, cells mounted on glass slides were fixed with methanol at −20° C. for 5 min, then permeabilized with 0.05% Triton X-100 in a PBS buffer for 8 min at 4° C., and blocked with a blocking solution for 60 min at 37° C., followed by incubation with primary antibodies for 60 min at 37° C. The slides were then washed three times with wash buffer A, and PLA labeled secondary antibodies (anti-mouse, minus; anti-rabbit, plus) were added and incubated for 60 min at 37° C. The slides were washed two times with wash buffer A and a ligation solution including a ligase was added for 30 min at 37° C. After ligation, the slides were washed two times with wash buffer A and followed by incubation with an amplification buffer including a polymerase for 100 min at 37° C. After amplification, the slides were washed two times with 1×wash buffer B and one time in 0.01×wash buffer B. Finally, the slides were mounted using a minimal volume of a mounting medium with DAPI and analyzed in a confocal microscope after 15 min.

[5] = tested on: centrosomal localization of pS56-RXRα or RXRα; test: Immunostaining of centrosomal localization of pS56-RXRα or RXRα in metaphase HeLa cells; type: cell-based, human; details: metaphase HeLa cells (FIG. 33)
Description: Cells mounted on glass slides were fixed with methanol at −20° C. for 10 min, then permeabilized with 0.05% Triton X-100 in a PBS buffer for 8 min at 4° C., and blocked with 1% bovine serum in PBS for 30 min at room temperature, followed by incubation with primary antibodies at room temperature for 3 hr and detected by FITC-labeled anti-IgG (1:200), anti-goat IgG conjugated with Cy3 (1:200) at room temperature for 1 hr. The cells were costained with 40,6-diamidino-2-phenylindole (DAPI) (1:10,000 dilution) to visualize nuclei. The images were taken under a LEICA TCS SP8 confocal laser scanning microscope system or an LSM-510 confocal laser scanning microscope system.

[6] = tested on: PLK1 phosphorylation; test: Western blot of PLK1 activation/phosphorylation in mitotic cells; type: cell-based, human
Description: as §1

[7] = target: T2, polo-like kinase 1 (PLK1), full-length (human, UniProt P53350 1-603); test: CoIP in HeLa cells (FIG. 5)
T2 construct: Endogenous, FLAG-tagged and His-tagged forms are merged here; also called FLAG-PLK1; Flag-PLK1

[8] = target: T3, regular 55 kDa RXRα (unmodified form) (human, UniProt P19793 1-462); test: co-immunoprecipitation from HeLa cells (IP: FLAG, WB: Myc)
T3 construct: Non-shifted band of RXRα; Endogenous and tagged (Myc, FLAG, GST) forms are merged; also called regular RXRα; GST-RXRα (not phosphorylated)
T3 sequence: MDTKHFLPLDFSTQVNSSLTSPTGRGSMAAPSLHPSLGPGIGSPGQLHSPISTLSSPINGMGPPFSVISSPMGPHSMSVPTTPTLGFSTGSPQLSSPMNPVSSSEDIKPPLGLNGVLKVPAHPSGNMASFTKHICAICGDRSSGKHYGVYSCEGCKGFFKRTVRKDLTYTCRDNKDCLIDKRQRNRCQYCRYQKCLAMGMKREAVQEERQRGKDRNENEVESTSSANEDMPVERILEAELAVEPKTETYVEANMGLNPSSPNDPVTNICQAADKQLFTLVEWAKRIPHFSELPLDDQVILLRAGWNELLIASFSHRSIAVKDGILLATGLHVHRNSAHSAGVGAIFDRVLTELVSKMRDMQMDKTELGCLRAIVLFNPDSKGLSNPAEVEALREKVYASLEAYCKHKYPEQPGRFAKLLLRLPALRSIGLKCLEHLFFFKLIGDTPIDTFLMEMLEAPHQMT

[9] = target: T4, modified (phosphorylated) RXRα, mobility-shifted form (human, UniProt P19793 1-462, phosphoserine at 56 (as in SEQ ID NO: 1) and phosphoserine at 70 (MS/MS)); test: CoIP of PLK1-KD or PLK1-PBD with RXRα in HeLa cells (FIG. 6)
T4 construct: Cdk1-phosphorylated form with reduced mobility on SDS-PAGE; Endogenous and Myc-, FLAG-, GST-tagged forms are merged; also called m-RXRα; p-RXRα
T4 sequence: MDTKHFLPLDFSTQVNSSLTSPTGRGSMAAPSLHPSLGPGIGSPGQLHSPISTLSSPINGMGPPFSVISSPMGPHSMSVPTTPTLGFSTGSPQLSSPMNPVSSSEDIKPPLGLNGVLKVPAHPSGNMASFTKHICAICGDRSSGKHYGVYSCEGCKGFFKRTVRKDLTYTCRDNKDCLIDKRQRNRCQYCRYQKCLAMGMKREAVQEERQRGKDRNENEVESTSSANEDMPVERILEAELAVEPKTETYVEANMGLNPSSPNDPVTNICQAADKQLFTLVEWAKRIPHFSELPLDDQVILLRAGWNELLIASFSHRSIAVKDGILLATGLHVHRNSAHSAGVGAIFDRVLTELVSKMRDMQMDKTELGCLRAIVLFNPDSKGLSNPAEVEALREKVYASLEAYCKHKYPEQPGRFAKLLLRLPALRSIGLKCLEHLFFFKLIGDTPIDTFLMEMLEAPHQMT

[10] = target: T2, polo-like kinase 1 (PLK1), full-length; test: CoIP in HeLa cells (FIG. 4)
[11] = target: T5, retinoic acid receptor-γ (RARγ) (UniProt P13631 1-454, limits assumed); test: co-immunoprecipitation from HeLa cells (IP: FLAG, WB: Myc)
T5 construct: also called FLAG-RARγ
T5 sequence (looked up): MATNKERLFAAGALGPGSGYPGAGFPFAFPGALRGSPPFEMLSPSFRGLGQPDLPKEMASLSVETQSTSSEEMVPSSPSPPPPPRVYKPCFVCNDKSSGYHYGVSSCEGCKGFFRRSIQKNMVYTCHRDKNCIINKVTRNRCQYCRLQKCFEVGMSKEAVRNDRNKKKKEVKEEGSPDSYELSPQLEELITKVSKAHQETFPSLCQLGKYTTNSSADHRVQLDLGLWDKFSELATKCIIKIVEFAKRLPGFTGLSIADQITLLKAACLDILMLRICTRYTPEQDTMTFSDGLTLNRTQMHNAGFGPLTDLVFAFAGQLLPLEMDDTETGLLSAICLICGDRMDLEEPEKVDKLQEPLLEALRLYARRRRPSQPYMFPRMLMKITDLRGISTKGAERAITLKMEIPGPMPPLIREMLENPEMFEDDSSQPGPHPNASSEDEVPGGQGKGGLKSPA

[12] = target: T5, retinoic acid receptor-γ (RARγ); test: CoIP in HeLa cells (FIG. 3)
[13] = target: T2, polo-like kinase 1 (PLK1), full-length; test: CoIP in HeLa cells (FIG. 3)

CC[C@@H]1C(=O)N(C)c2cnc(Nc3ccc(C(=O)NC4CCN(C)CC4)cc3OC)nc2N1C1CCCC1 [BI2536]
effect in p-RXRα-negative noncancerous QSG-7701 cells [1]: active even in QSG-7701 cells
RXRα shift (mobility shift on SDS-PAGE, WB) [2]: did not inhibit
inducing mitosis arrest [3]: inducing mitosis arrest
mitotic progression of cancer cells [3]: inhibited mitotic progression of cancer cells

CN1CC[C@H](c2c(O)cc(O)c3c(=O)cc(-c4ccccc4Cl)oc23)[C@H](O)C1 [flavopiridol]
RXRα shift (mobility shift on SDS-PAGE, WB) [2]: strongly inhibited RXRα shift in a dose dependent manner

Oc1c2ccccc2c2c3c(cccc13)N=N2 [SP600125]
RXRα shift (mobility shift on SDS-PAGE, WB) [2]: no effect

CC1=CC(=O)C(C(C)C)=C/C1=N/OC(=O)c1ccccc1C [poloxin]
mitotic progression of cancer cells [3]: inhibited mitotic progression of cancer cells

CC(=O)c1c(C)c2cnc(Nc3ccc(N4CCNCC4)cn3)nc2n(C2CCCC2)c1=O [palbociclib]
RXRα shift (mobility shift on SDS-PAGE, WB) [2]: no effect

O=C1NC(=NCc2cccs2)S/C1=C\c1ccc2ncccc2c1 [RO-3306]
in situ interaction between p-RXRα and PLK1 at the centrosome (PLA) [4]: inhibited the in situ interaction
centrosomal RXRα staining by the regular anti-RXRα antibody [5]: inhibited centrosomal RXRα staining
centrosomal staining by the anti-pS56-RXRα antibody [5]: eliminated centrosomal staining by the antibody
PLK1 activation / PLK1 phosphorylation [6]: reduced PLK1 phosphorylation in a dose dependent manner
level of p-RXRα detected by the anti-pS56-RXRα antibody ([2]; mitotic HeLa cells): reduced
RXRα shift (mobility shift on SDS-PAGE, WB) [2]: strongly inhibited RXRα shift in a dose dependent manner

Cc1cc(Nc2cc(N3CCN(C)CC3)nc(Sc3ccc(NC(=O)C4CC4)cc3)n2)n[nH]1 [VX680]
PLK1 activation / PLK1 phosphorylation [6]: attenuated

B1: RXRα mutant lacking the N-terminal A/B domain (receptor)
chain: CAICGDRSSGKHYGVYSCEGCKGFFKRTVRKDLTYTCRDNKDCLIDKRQRNRCQYCRYQKCLAMGMKREAVQEERQRGKDRNENEVESTSSANEDMPVERILEAELAVEPKTETYVEANMGLNPSSPNDPVTNICQAADKQLFTLVEWAKRIPHFSELPLDDQVILLRAGWNELLIASFSHRSIAVKDGILLATGLHVHRNSAHSAGVGAIFDRVLTELVSKMRDMQMDKTELGCLRAIVLFNPDSKGLSNPAEVEALREKVYASLEAYCKHKYPEQPGRFAKLLLRLPALRSIGLKCLEHLFFFKLIGDTPIDTFLMEMLEAPHQMT
notes: also called RXRα-AA/B (so in the source)
binding result [7]: no binding

B2: PLK1-KD (N-terminal kinase domain of PLK1) (enzyme, UniProt P53350 1-326, looked up)
chain: MSAAVTAGKLARAPADPGKAGVPGVAAPGAPAAAPPAKEIPEVLVDPRSRRRYVRGRFLGKGGFAKCFEISDADTKEVFAGKIVPKSLLLKPHQREKMSMEISIHRSLAHQHVVGFHGFFEDNDFVFVVLELCRRRSLLELHKRRKALTEPEARYYLRQIVLGCQYLHRNRVIHRDLKLGNLFLNEDLEVKIGDFGLATKVEYDGERKKTLCGTPNYIAPEVLSKKGHSFEVDVWSIGCIMYTLLVGKPPFETSCLKETYLRIKKNEYSIPKHINPVAASLIQKMLQTDPTARPTINELLNDEFFTSGYIPARLPITCLTIPPRFS
notes: domain: kinase domain (KD)
binding result [8]: no binding
binding result [9]: no binding

B3: RXRα-LBD (ligand-binding domain of RXRα) (receptor)
chain: TSSANEDMPVERILEAELAVEPKTETYVEANMGLNPSSPNDPVTNICQAADKQLFTLVEWAKRIPHFSELPLDDQVILLRAGWNELLIASFSHRSIAVKDGILLATGLHVHRNSAHSAGVGAIFDRVLTELVSKMRDMQMDKTELGCLRAIVLFNPDSKGLSNPAEVEALREKVYASLEAYCKHKYPEQPGRFAKLLLRLPALRSIGLKCLEHLFFFKLIGDTPIDTFLMEMLEAPHQMT
notes: also called LBD of RXRα
binding result [10]: no binding

B4: RXRα-1-235, regular form (receptor)
chain: MDTKHFLPLDFSTQVNSSLTSPTGRGSMAAPSLHPSLGPGIGSPGQLHSPISTLSSPINGMGPPFSVISSPMGPHSMSVPTTPTLGFSTGSPQLSSPMNPVSSSEDIKPPLGLNGVLKVPAHPSGNMASFTKHICAICGDRSSGKHYGVYSCEGCKGFFKRTVRKDLTYTCRDNKDCLIDKRQRNRCQYCRYQKCLAMGMKREAVQEERQRGKDRNENEVESTSSANEDMPVERI
binding result [11]: no binding

B5: RXRα-1-235, modified form with mobility shift (receptor)
chain: MDTKHFLPLDFSTQVNSSLTSPTGRGSMAAPSLHPSLGPGIGSPGQLHSPISTLSSPINGMGPPFSVISSPMGPHSMSVPTTPTLGFSTGSPQLSSPMNPVSSSEDIKPPLGLNGVLKVPAHPSGNMASFTKHICAICGDRSSGKHYGVYSCEGCKGFFKRTVRKDLTYTCRDNKDCLIDKRQRNRCQYCRYQKCLAMGMKREAVQEERQRGKDRNENEVESTSSANEDMPVERI
modifications: phosphorylated (mobility-shifted); sites not stated for this construct
notes: A/B domain plus DBD
binding result [12]: no binding
binding result [13]: binds
